Measurements reported in patent publication US8318769B2, “Substituted sulfonamide compounds” (Gruenethal GmbH, priority 2008, dated 2012).

How the values were obtained:
[1] = biological target: T1, bradykinin 1 receptor (B1R) of the rat (Rattus norvegicus, UniProt P97583); assay: FLIPR Ca2+ assay, B1R antagonism, rat; assay type: cell-based; conditions: CHO K1 cells with rat B1R gene (rB1R cells), Des-Arg9-bradykinin at EC80, % inhibition compared with the maximum achievable inhibition; for inhibition at 10 µM: CHO-K1, 10 μM test substance, read-out: B1R antagonism, rat [10 μM] % inhibition
T1 construct: expressed in transfected cells
T1 sequence (P97583 1-337): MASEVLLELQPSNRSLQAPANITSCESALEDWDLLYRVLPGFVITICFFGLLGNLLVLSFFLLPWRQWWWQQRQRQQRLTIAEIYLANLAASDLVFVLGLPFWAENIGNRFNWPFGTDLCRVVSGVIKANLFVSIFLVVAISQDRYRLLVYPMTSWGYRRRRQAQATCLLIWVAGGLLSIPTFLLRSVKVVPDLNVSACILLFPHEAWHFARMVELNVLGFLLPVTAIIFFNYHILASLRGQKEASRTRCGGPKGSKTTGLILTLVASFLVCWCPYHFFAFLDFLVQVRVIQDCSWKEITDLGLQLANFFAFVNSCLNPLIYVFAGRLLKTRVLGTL
Protocol: (§1) The agonistic or antagonistic action of substances can be quantified on the bradykinin 1 receptor (B1R) of the human and rat species with ectopically expressing cell lines (CHO K1 cells) and with the aid of a Ca^2+-sensitive dyestuff (Fluo-4) in a fluorescent imaging plate reader (FLIPR). The figure in % activation is based on the Ca^2+ signal after addition of Lys-Des-Arg^9-bradykinin (0.5 nM) or Des-Arg^9-bradykinin (100 nM). Antagonists lead to a suppression of the Ca^2+ inflow after addition of the agonist. % inhibition compared with the maximum achievable inhibition is stated.
(§2) The agonistic or antagonistic action of substances can be determined on the bradykinin 1 receptor (B1R) of the human and rat species with the following assay. In accordance with this assay, the Ca^2+ inflow through the channel is quantified with the aid of a Ca^2+-sensitive dyestuff (type Fluo-4, Molecular Probes Europe BV, Leiden, Holland) in a fluorescent imaging plate reader (FLIPR, Molecular Devices, Sunnyvale, USA).
(§3) Chinese hamster ovary cells (CHO K1 cells) transfected stably with the human B1R gene (hB1R cells) or the B1R gene of the rat (rB1R cells) are used. For functional studies, these cells are plated out on black 96-well plates with a clear base (BD Biosciences, Heidelberg, Germany or Greiner, Frickenhausen, Germany) in a density of 20,000-35,000 cells/well. The cells are left overnight at 37° C. and 5% CO2 in culture medium (hB1R cells: Nutrient Mixture Ham's F12, Gibco Invitrogen GmbH, Karlsruhe, Germany or DMEM, Sigma-Aldrich, Taufkirchen, Germany; rB1R cells: D-MEM/F12, Gibco Invitrogen GmbH, Karlsruhe, Germany) with 10 vol. % FBS (foetal bovine serum, Gibco Invitrogen GmbH, Karlsruhe, Germany or PAN Biotech GmbH, Aidenbach, Germany).
(§4) On the following day, the cells are loaded for 60 min at 37° C. with 2.13 μM Fluo-4 (Molecular Probes Europe BV, Leiden, Holland) in HBSS buffer (Hank's buffered saline solution, Gibco Invitrogen GmbH, Karlsruhe, Germany) with 2.5 mM probenecid (Sigma-Aldrich, Taufkirchen, Germany) and 10 mM HEPES (Sigma-Aldrich, Taufkirchen, Germany). The plates are then washed 2× with HBSS buffer, and HBSS buffer which additionally contains 0.1% BSA (bovine serum albumin; Sigma-Aldrich, Taufkirchen, Germany), 5.6 mM glucose and 0.05% gelatine (Merck KGaA, Darmstadt, Germany) is added. After a further incubation of 20 minutes at room temperature, the plates are inserted into the FLIPR for the Ca^2+ measurement.
(§5) Alternatively, the plates are washed with buffer A (15 mM HEPES, 80 mM NaCl, 5 mM KCl, 1.2 mM CaCl2, 0.7 mM MgSO4, 2 g/l glucose, 2.5 mM probenecid), buffer A is added and the plates are loaded with 2.5 μM Fluo-4 and 0.025% Pluronic F127 (Sigma-Aldrich, Taufkirchen, Germany). Thereafter, the cells are washed 2× with buffer A and incubated for 30 minutes with buffer A, which additionally contains 0.05% BSA and 0.05% gelatine, at room temperature and thereafter inserted into the FLIPR for the Ca^2+ measurement.
(§6) The Ca^2+-dependent fluorescence is measured here before and after addition of substances (λex=488 nm, λem=540 nm). Quantification is by measurement of the highest fluorescence intensity (FC, fluorescence counts) over time.
(§7) The FLIPR protocol consists of 2 additions of substance. Test substances (10 μM) are first pipetted on to the cells and the Ca^2+ inflow is compared with the control (hB1R: Lys-Des-Arg^9-bradykinin >=50 nM; rB1R: Des-Arg^9-bradykinin 10 μM). This gives the figure in % activation based on the Ca^2+ signal after addition of Lys-Des-Arg^9-bradykinin (>=50 nM) or Des-Arg^9-bradykinin (10 μM).
(§8) After incubation for 10-20 minutes, Lys-Des-Arg^9-bradykinin (hB1R) or Des-Arg^9-bradykinin (rB1R) in the concentration of the EC80 is applied and the inflow of Ca^2+ is likewise determined. Antagonists lead to a suppression of the Ca^2+ inflow. % inhibition compared with the maximum achievable inhibition is calculated. […]

[2] = biological target: T2, human bradykinin 1 receptor (B1R) (Homo sapiens, UniProt P46663); assay: FLIPR Ca2+ assay, B1R antagonism, human; assay type: cell-based; conditions: 10 μM test substance, CHO K1 cells with human B1R gene (hB1R cells), Lys-Des-Arg9-bradykinin at EC80, % inhibition compared with the maximum achievable inhibition; for inhibition at 10 µM: read-out: B1R antagonism, human [10 μM] % inhibition
T2 construct: expressed in transfected cells
T2 sequence (P46663 1-353): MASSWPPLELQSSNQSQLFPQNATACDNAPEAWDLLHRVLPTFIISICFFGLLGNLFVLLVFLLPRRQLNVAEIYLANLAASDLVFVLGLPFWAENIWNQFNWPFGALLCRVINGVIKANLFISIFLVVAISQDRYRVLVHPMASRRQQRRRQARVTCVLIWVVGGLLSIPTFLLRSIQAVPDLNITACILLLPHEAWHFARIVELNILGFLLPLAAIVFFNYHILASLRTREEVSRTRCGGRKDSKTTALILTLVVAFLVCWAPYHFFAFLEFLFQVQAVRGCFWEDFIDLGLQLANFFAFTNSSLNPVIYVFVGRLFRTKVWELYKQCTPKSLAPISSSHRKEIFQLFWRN
Protocol: as §1, §2, §3, §4, §5, §6, §7, §8

COc1cc(C)c(S(=O)(=O)N(C)CCOCC(=O)N2CCC(OCCN3CCCC3)(c3cccnc3)CC2)c(C)c1 [Example 80, 4-methoxy-N,2,6-trimethyl-N-[2-[2-oxo-2-[4-pyridin-3-yl-4-(2-pyrrolidin-1-yl-ethoxy)-piperidin-1-yl]-ethoxy]-ethyl]-benzenesulfonic acid amide]
B1R antagonism, rat [10 μM] % inhibition ([1]; 10 μM test substance, 10 µM): 102% | B1R antagonism, human [10 μM] % inhibition ([2]; 10 µM): 100%

Cc1cc(S(=O)(=O)N2CCCCC2CCC(=O)N2CCC(OCCCN3CCN(C)CC3)(c3cccnc3)CC2)c(C)cc1Cl (stereo not drawn) [Example 36, 3-(1-(4-chloro-2,5-dimethylphenylsulfonyl)piperidin-2-yl)-1-(4-(3-(4-methylpiperazin-1-yl)propoxy)-4-(pyridin-3-yl)piperidin-1-yl)propan-1-one]
inhibition at 10 µM [1]: 93% | inhibition at 10 µM [2]: 85%

Cc1cc(S(=O)(=O)N2CCCCC2CCC(=O)N2CCC(OCCN3CCCCC3)(c3cccnc3)CC2)c(C)cc1Cl (stereo not drawn) [Example 13, 3-(1-(4-chloro-2,5-dimethylphenylsulfonyl)piperidin-2-yl)-1-(4-(2-(piperidin-1-yl)ethoxy)-4-(pyridin-3-yl)piperidin-1-yl)propan-1-one]
inhibition at 10 µM [1]: 50% | inhibition at 10 µM [2]: 101%

Cc1cccc(Cl)c1S(=O)(=O)N(CCOCC(=O)N1CCC(OCCN2CCCC2)(c2cccc(F)c2)CC1)C1CC1 [Example 62, 2-chloro-N-cyclopropyl-N-[2-[2-[4-(3-fluorophenyl)-4-(2-pyrrolidin-1-yl-ethoxy)-piperidin-1-yl]-2-oxo-ethoxy]-ethyl]-6-methyl-benzenesulfonic acid amide]
inhibition at 10 µM [1]: 102% | inhibition at 10 µM [2]: 100%

O=C(CC(NS(=O)(=O)c1ccc2ccccc2c1)c1ccccc1)N1CCC(OCCN2CCCC2)(c2cccnc2)CC1 (stereo not drawn) [Example 26, N-(3-oxo-1-phenyl-3-(4-(pyridin-3-yl)-4-(2-(pyrrolidin-1-yl)ethoxy)piperidin-1-yl)propyl)naphthalene-2-sulfonamide]
inhibition at 10 µM [1]: 91% | inhibition at 10 µM [2]: 87%

COc1cc(C)c(S(=O)(=O)N2CCCC[C@H]2COCC(=O)N2CCC(OCCN3CCCC3)(c3cccc(C(F)(F)F)c3)CC2)c(C)c1 [Example 54, 2-[[(2S)-1-[(4-methoxy-2,6-dimethyl-phenyl)sulfonyl]-piperidin-2-yl]-methoxy]-1-[4-(2-pyrrolidin-1-yl-ethoxy)-4-[3-(trifluoromethyl)phenyl]-piperidin-1-yl]-ethanone]
inhibition at 10 µM [1]: 96% | inhibition at 10 µM [2]: 99%

COc1cc(C)c(S(=O)(=O)N2CCCCC2COCC(=O)N2CCC(OCCCN3CCCCC3)(c3cccnc3)CC2)c(C)c1 (stereo not drawn) [Example 17, 2-((1-(4-methoxy-2,6-dimethylphenylsulfonyl)piperidin-2-yl)methoxy)-1-(4-(3-(piperidin-1-yl)propoxy)-4-(pyridin-3-yl)piperidin-1-yl)ethanone]
inhibition at 10 µM [1]: 102% | inhibition at 10 µM [2]: 102%

O=C(COCC1CCc2ccccc2N1S(=O)(=O)c1ccc(Cl)c(Cl)c1)N1CCC(OCCN2CCCC2)(c2cccnc2)CC1 (stereo not drawn) [Example 24, 2-((1-(3,4-dichlorophenylsulfonyl)-1,2,3,4-tetrahydroquinolin-2-yl)methoxy)-1-(4-(pyridin-3-yl)-4-(2-(pyrrolidin-1-yl)ethoxy)piperidin-1-yl)ethanone]
inhibition at 10 µM [1]: 101% | inhibition at 10 µM [2]: 69%

COc1cc(C)c(S(=O)(=O)N2CCCCC2COCC(=O)N2CCC(OCCN3CCCC3)(c3cccc(F)c3)CC2)c(C)c1 (stereo not drawn) [Example 83, 1-[4-(3-fluorophenyl)-4-(2-pyrrolidin-1-yl-ethoxy)-piperidin-1-yl]-2-[[1-[(4-methoxy-2,6-dimethyl-phenyl)sulfonyl]-piperidin-2-yl]-methoxy]-ethanone]
inhibition at 10 µM [1]: 99% | inhibition at 10 µM [2]: 100%

COc1cc(C)c(S(=O)(=O)N2CCCC[C@H]2COCC(=O)N2CCC(OCCN3CCC3)(c3cccnc3)CC2)c(C)c1 [Example 61, 1-[4-[2-(azetidin-1-yl)-ethoxy]-4-pyridin-3-yl-piperidin-1-yl]-2-[[(2S)-1-[(4-methoxy-2,6-dimethyl-phenyl)sulfonyl]-piperidin-2-yl]-methoxy]-ethanone]
inhibition at 10 µM [1]: 101% | inhibition at 10 µM [2]: 100%

COc1cc(C)c(S(=O)(=O)N2CCCCC2CCCC(=O)N2CCC(OCCN3CCCC3)(c3cccnc3)CC2)c(C)c1 (stereo not drawn) [Example 88, 4-[1-[(4-methoxy-2,6-dimethyl-phenyl)sulfonyl]-piperidin-2-yl]-1-[4-pyridin-3-yl-4-(2-pyrrolidin-1-yl-ethoxy)-piperidin-1-yl]-butan-1-one]
B1R antagonism, human [10 μM] % inhibition [2]: 100%

COc1cc(C)c(S(=O)(=O)N2c3ccccc3OCC2COCC(=O)N2CCC(OCCN3CCCC3)(c3cccc(F)c3)CC2)c(C)c1 (stereo not drawn) [Example 107, 1-[4-(3-fluorophenyl)-4-(2-pyrrolidin-1-yl-ethoxy)-piperidin-1-yl]-2-[[4-[(4-methoxy-2,6-dimethyl-phenyl)sulfonyl]-3,4-dihydro-2H-[1,4]benzoxazin-3-yl]-methoxy]-ethanone]
inhibition at 10 µM [1]: 97% | inhibition at 10 µM [2]: 98%

O=C(CC1CCCCN1S(=O)(=O)c1cccc(C(F)(F)F)c1)N1CCC(OCCN2CCCC2)(c2ccc(F)cc2)CC1 (stereo not drawn) [Example 72, 1-[4-(4-fluorophenyl)-4-(2-pyrrolidin-1-yl-ethoxy)-piperidin-1-yl]-2-[1-[[3-(trifluoromethyl)phenyl]sulfonyl]-piperidin-2-yl]-ethanone]
inhibition at 10 µM [1]: 62%
